{"source": "paper PMC5095007", "about": "“Liposomal bortezomib is active against chronic myeloid leukemia by disrupting the Sp1-BCR/ABL axis” (Oncotarget, 2016)", "key": {"[1]": {"test_system": "K562 single tumor cells", "experiment": "Chemosensitization of single tumor cells to doxorubicin, MTT assay", "format": "cell-based", "conditions": "DOX alone (no BORT), mean ±SD, n=6", "method": "To investigate how L-BORT influences tumor cell growth, tumors were harvested from K562 tumor bearing mice and separated into single cells by collagenase. The single tumor cells were then cultured in RPMI1640 medium with 10% FBS and the cell survival was then evaluated in the presence of doxorubicin combined with subtoxic BORT. As shown in Figure 5C and Table 4, a synergistic effect of toxicity to single tumor cells was found between DOX and free BORT, consistent with what we have observed in K562 cells. […] L-BORT, with enhanced BORT delivery, amplified the synergy effect to approximately a 70-fold increase in chemosensitivity (p < 0.05).\nK562 cells (10×10^6) were subcutaneously injected into the flank of 4-6 week old NOD/SCID mice (The Jackson Laboratory, Bar Harbor, ME). When the tumor size approached 1000 mm^3, the tumors were harvested from mouse flank and cut into pieces in PBS buffer. Collagenase was added into the above buffer and incubated for 2 hours at 37°C with shaking. The digested tumor cell suspension was filtered through a cell strainer and centrifuged at 1200 rpm for 5 minutes. The separated tumor cells were kept in cell frozen medium and stored in liquid N2 until use. […]"}, "[2]": {"test_system": "K562/DOX cells", "experiment": "Chemosensitization to doxorubicin by subtoxic BORT formulations, MTT/MTS assay", "format": "cell-based", "conditions": "Homo sapiens, DOX alone (No BORT), mean ±SD, n=6", "protocol": "To determine if L-BORT and Tf-L-BORT could enhance the cytotoxicity of agents used for CML therapy, we employed the MTS assay to evaluate the cytotoxic effects of doxorubicin, alone and in combination with a subtoxic BORT formulation at 2 nM to doxorubicin resistant K562/DOX cells. Initially, we determined the effects of drug treatment sequences on chemosensitivities by treating the K562/DOX cells with 100 nM doxorubicin for 24-hour before, after or simultaneous addition of subtoxic 2 or 10 nM Tf-L-BORTs followed by another 24 hour co-incubation. […] We then applied this treatment strategy to K562/DOX cells exposed to various concentrations of doxorubicin.\nTo evaluate BORT toxicity, K562 cells were treated by different concentration of free- or L-BORT. Regarding to the chemosensitivity to doxorubicin, the K562/ DOX cells were pre-treated with doxorubicin for 24 hours and then subtoxic BORT formulations were added for additional 24 hours. Cellular viability was assessed by MTT proliferation assays (Promega, Madison, WI).\nFor the studies, 24-hour treatment. At this point, 20 μL of CellTiter 96®\nAQueous One Solution was added to each well and\n37 °C for another 1 hour."}, "[3]": {"test_system": "BCR/ABL protein expression in K562 cells", "experiment": "Western blotting of BCR/ABL and Sp1", "format": "cell-based", "method": "Sp1 siRNA, miR-29b and their scrambles were introduced into K562 cells by Lipofectamine™ 2000 (Invitrogen) and the Western blotting was performed as previously described. The antibodies used are: Sp1, DNMT3a, β-actin and ubiquitin (Santa Cruz Biotechnology, Santa Cruz, CA); ABL, phospho-ABL, caspase-3 and caspase-8 (Cell Signaling Technology, Danvers, MA); Parp, CRKL and p-CRKL (Millipore, Billerica, MA)."}, "[4]": {"test_system": "K562 cells", "experiment": "Cytotoxicity of BORT formulations, MTT/MTS cell proliferation assay", "format": "cell-based", "conditions": "mean ±SD, n=6", "protocol": "To evaluate BORT toxicity, K562 cells were treated by different concentration of free- or L-BORT. […] Cellular viability was assessed by MTT proliferation assays (Promega, Madison, WI)."}, "[5]": {"experiment": "Pharmacokinetics after tail vein injection, plasma BORT by ICP-OES", "conditions": "ICR mice, 1.0 mg/kg i.v. tail vein, mean (%CV), n=5", "protocol": "(§1) BORT exposure and elimination in mice were investigated following a tail vein injection of L-BORT at 1.0 mg/kg dose. […] PK parameters were obtained by Non-compartmental PK analysis in Phoenix WinNonlin.\n(§2) BORT (1.0 mg/kg) was injected into ICR mice via the tail vein and blood samples were collected at various time points. Plasma was isolated by centrifugation at 1500×g for 10 minutes and stored at −20°C. Concentration of BORT in the plasma was calculated from boron concentration the sample, which was measured by coupled plasma-optical emission spectrometers (ICP-OES). For ICP-OES measurement, the plasma samples were prepared as previously described [28]. Data analysis and PK parameter calculations were carried out in Phoenix® WinNonlin® 6.3 (Certara, Princeton, NJ)."}, "[6]": {"test_system": "imatinib-refractory CML", "design": "method as in PMID 21816374", "conditions": "pilot clinical trial, imatinib-refractory CML patients; ref [15]; cited from earlier work"}, "[7]": {"experiment": "Toxicity assay in vivo in normal mice", "conditions": "normal BALB/cByJ mice, 2.5 mg/kg every four days, tail vein; in two weeks", "method": "To determine the toxicity in vivo, liposomal vehicle, free or L-BORT was administrated through the tail vein to normal BALB/cByJ mice (6-8 weeks old, 22 ± 5 g) in a small volume (0.2 ml) at normal pressure. The dose used was 2.5 mg/kg every four days."}, "[8]": {"test_system": "BCR/ABL protein expression in KU812 cells", "experiment": "Western blotting of BCR/ABL and Sp1", "format": "cell-based", "conditions": "KU812, different doses of BORT for 24 hours"}, "[9]": {"experiment": "in vivo", "conditions": "ICR, mouse, plasma, iv, 1 mg/kg", "protocol": "as §1, §2"}}, "data": [{"smiles": "COc1cccc2c1C(=O)c1c(O)c3c(c(O)c1C2=O)C[C@@](O)(C(=O)CO)C[C@@H]3O[C@H]1C[C@H](N)[C@H](O)[C@H](C)O1", "note": "[DOX, doxorubicin]", "values": [{"measurement": "IC50", "setting": "[1]; 48 hours", "value": "17.1 ± 0.534", "unit": "µM"}, {"measurement": "IC50", "setting": "[1]; Homo sapiens, K562, 48 h", "value": 17, "unit": "µM"}, {"measurement": "IC50", "setting": "[2]", "value": "20.2 ± 8.75", "unit": "µM"}, {"measurement": "BCR/ABL expression", "setting": "[3]; K562, various doses, 48 hours", "value": "dose-dependently downregulated"}]}, {"smiles": "CC(C)C[C@H](NC(=O)[C@H](Cc1ccccc1)NC(=O)c1cnccn1)B(O)O", "note": "[Free BORT, bortezomib]", "values": [{"measurement": "IC50", "setting": "[4]; 48 hours", "value": "0.0393 ± 0.00227", "unit": "µM"}, {"measurement": "IC50", "setting": "[4]; Homo sapiens, K562, 48 h", "value": 0.039, "unit": "µM"}, {"measurement": "AUCinf", "setting": "[5]; 1 mg/kg", "value": "0.661 (12.8%) μg·hr/mL"}, {"measurement": "CL", "setting": "[5]; total body clearance", "value": "1.51 (17.9%) L/hr/kg"}, {"measurement": "V", "setting": "[5]; volume of distribution", "value": "27.1 (17.6%) L/kg"}, {"measurement": "clinical efficacy", "setting": "[6]", "value": "minimal efficacy"}, {"measurement": "clinical toxicity", "setting": "[6]", "value": "considerable toxicity"}, {"measurement": "mice died", "setting": "[7]", "value": 50, "unit": "%"}, {"measurement": "Sp1 and BCR/ABL protein expression", "setting": "[8]", "value": "inhibition of Sp1 and BCR/ABL protein expression"}, {"measurement": "AUC(0-inf)", "setting": "[9]", "value": 469, "unit": "ng·h/mL"}, {"measurement": "Cmax", "setting": "[9]", "value": 758, "unit": "ng/mL"}, {"measurement": "clearance", "setting": "[9]", "value": 25.2, "unit": "mL/min/kg"}, {"measurement": "half-life", "setting": "[9]", "value": 12.4, "unit": "h"}, {"measurement": "Sp1 and BCR/ABL protein expression", "setting": "[3]; K562, different doses of BORT for 24 hours", "value": "inhibition of Sp1 and BCR/ABL protein expression"}]}]}
